In paper PMC9148196 (The AAPS journal, 2021):
pIC50: −log10 of the molar value.

Target: P-glycoprotein (P-gp, MDR1) (Homo sapiens, UniProt P08183)
Test: basal-to-apical [3H]digoxin flux in MDCK-hMDR1-cMDR1-KO cells, dose-response
Assay type: cell-based

Sequence of P-glycoprotein (P-gp, MDR1) (P08183 whole entry): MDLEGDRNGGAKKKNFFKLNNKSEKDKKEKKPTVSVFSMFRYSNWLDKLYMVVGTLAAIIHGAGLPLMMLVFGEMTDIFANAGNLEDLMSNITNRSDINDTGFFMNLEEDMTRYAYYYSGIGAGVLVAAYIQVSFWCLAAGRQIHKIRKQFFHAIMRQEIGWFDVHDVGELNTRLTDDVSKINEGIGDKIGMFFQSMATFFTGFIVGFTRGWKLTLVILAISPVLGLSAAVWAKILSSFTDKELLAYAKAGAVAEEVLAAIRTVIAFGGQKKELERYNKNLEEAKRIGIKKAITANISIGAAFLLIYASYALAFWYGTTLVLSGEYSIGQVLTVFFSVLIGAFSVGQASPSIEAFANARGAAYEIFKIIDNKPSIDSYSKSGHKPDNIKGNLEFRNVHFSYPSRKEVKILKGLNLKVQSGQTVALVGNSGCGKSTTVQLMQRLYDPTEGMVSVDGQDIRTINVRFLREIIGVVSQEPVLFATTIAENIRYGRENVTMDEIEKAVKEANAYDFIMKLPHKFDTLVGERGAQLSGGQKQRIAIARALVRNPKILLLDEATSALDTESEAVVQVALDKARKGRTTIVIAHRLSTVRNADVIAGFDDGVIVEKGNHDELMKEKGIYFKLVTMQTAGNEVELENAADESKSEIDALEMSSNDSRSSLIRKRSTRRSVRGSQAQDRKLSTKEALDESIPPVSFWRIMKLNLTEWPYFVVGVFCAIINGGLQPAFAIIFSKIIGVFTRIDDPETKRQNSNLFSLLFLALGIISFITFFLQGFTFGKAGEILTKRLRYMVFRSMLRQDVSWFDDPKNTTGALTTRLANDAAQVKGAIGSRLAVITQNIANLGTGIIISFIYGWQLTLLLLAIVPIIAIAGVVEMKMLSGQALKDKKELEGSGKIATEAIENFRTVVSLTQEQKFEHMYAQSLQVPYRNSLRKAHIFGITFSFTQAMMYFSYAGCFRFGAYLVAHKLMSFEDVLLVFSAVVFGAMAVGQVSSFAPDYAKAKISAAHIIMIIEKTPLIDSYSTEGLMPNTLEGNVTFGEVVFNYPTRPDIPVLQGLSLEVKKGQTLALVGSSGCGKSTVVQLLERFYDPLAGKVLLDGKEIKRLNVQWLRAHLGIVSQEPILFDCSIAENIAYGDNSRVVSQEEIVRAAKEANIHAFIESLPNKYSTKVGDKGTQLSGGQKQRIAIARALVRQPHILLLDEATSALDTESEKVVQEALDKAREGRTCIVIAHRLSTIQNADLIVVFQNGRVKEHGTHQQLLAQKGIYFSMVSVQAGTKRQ

pIC50: 3.69
Structure (SMILES): CCN(Cc1cccc(S(=O)(=O)O)c1)c1ccc(C(=C2C=CC(=[N+](CC)Cc3cccc(S(=O)(=O)[O-])c3)C=C2)c2ccc(S(=O)(=O)O)cc2)cc1 [Light green SF yellowish]
